The values below come from ChEMBL document CHEMBL3045567, “Heterocycles 23: Synthesis, characterization and anticancer activity of new hydrazinoselenazole derivatives” (Med Chem Res, 2013).

What is called IC50 is the point on the concentration scale where inhibition reaches its midpoint. The low end stands for inhibition by little substance, the high end for a need for much substance.

The test system of assay [1] is DU-145. Briefly: Cytotoxicity against human DU145 cells after 72 hrs by XTT assay. It counts as functional, cell-based. The note with it: DU-145, 72 h. (In general: Tetrazolium dyes change colour on reduction, which living cells bring about.)
Assay [2] has as its system HepG2. Put plainly: Cytotoxicity against human HepG2 cells after 72 hrs by XTT assay. It counts as functional, cell-based. The note with it: HepG2, 72 h.

Take `CC(=O)N(C(=O)c1ccccc1)N(C(C)=O)c1nc(-c2ccccc2)c[se]1`: the IC50 in assay [1] and in assay [2] was more than 58.6 µM in each case.

On to `CC(=O)N(C(=O)c1ccc(Cl)cc1)N(C(C)=O)c1nc(C)c[se]1`, for which the concentration for half-maximal inhibition (IC50) in assay [1] and in assay [2] was more than 62.7 µM each time.

In the case of `CC(=O)N(C(=O)c1ccc(Cl)cc1)N(C(C)=O)c1nc(-c2ccccc2)c[se]1`, the IC50 in assay [1] and in assay [2] was more than 54.3 µM in each case.

As for `CC(=O)N(/N=C/c1ccc(Cl)cc1)c1nc(CCl)c[se]1`, the IC50 is 64.7 µM in assay [1] and more than 66.7 µM in assay [2].

In the case of `CC(=O)N(/N=C/c1ccc(Cl)cc1)c1nc(-c2ccccc2)c[se]1`, the concentration for half-maximal inhibition (IC50) in assay [1] and in assay [2] was more than 62.1 µM in each case.

For `CCOC(=O)c1[se]c(N(/N=C/c2ccc(Cl)cc2)C(C)=O)nc1C`, the IC50 is more than 60.6 µM in assay [1] and 55.1 µM in assay [2].

For the compound `COc1ccc(/C=N/N(C(C)=O)c2nc(C)c[se]2)cc1`, the IC50 in assay [1] and in assay [2] was more than 74.4 µM each time.

Consider `COc1ccc(/C=N/N(C(C)=O)c2nc(-c3ccccc3)c[se]2)cc1`, for which the IC50 in assay [1] and in assay [2] was more than 62.8 µM throughout.

As to `CC(=O)N(/N=C/c1csc(-c2ccccc2)n1)c1nc(CCl)c[se]1`, the IC50 in assay [1] stood at 19.6 µM; in assay [2] it was 19.3 µM.

In the case of `CC(=O)c1[se]c(N(/N=C/c2csc(-c3ccccc3)n2)C(C)=O)nc1C`, the IC50 was determined as 31.3 µM in assay [1] and 29.4 µM in assay [2].

On to `NC(=[Se])NNC(=O)c1ccc(Cl)cc1`, for which the IC50 in assay [1] stood at 7.59 µM; in assay [2], 10.7 µM.

On to `Cc1c[se]c(NNC(=O)c2ccccc2)n1`, for which the IC50 in assay [1] and in assay [2] was more than 89.2 µM in each case.

As for `O=C(NNc1nc(-c2ccccc2)c[se]1)c1ccccc1`, the IC50 in assay [1] and in assay [2] was more than 73 µM each time.

As for `Cc1c[se]c(NNC(=O)c2ccc(Cl)cc2)n1`, the IC50 in assay [1] and in assay [2] was more than 79.5 µM throughout.

As for `O=C(NNc1nc(-c2ccccc2)c[se]1)c1ccc(Cl)cc1`, the IC50 in assay [1] came to 65.1 µM; in assay [2], 62.9 µM.

In the case of `CC(=O)N(C(=O)c1ccccc1)N(C(C)=O)c1nc(C)c[se]1`, the IC50 in assay [1] and in assay [2] was more than 68.6 µM in each case.

For `NC(=[Se])N/N=C/c1ccc(Cl)cc1`, the IC50 in assay [1] turned out to be 8.63 µM; in assay [2], 13 µM.

Take `COc1ccc(/C=N/NC(N)=[Se])cc1`: the IC50 in assay [1] was found to be 30.3 µM; in assay [2] it was 11.3 µM.

With `NC(=[Se])N/N=C/c1csc(-c2ccccc2)n1`, the IC50 was 6.14 µM in assay [1] and 9.18 µM in assay [2].

In the case of `Cc1c[se]c(N/N=C/c2ccc(Cl)cc2)n1`, the IC50 in assay [1] is 49.4 µM; in assay [2], 56.5 µM.

`ClCc1c[se]c(N/N=C/c2ccc(Cl)cc2)n1`: the IC50 in assay [1] and in assay [2] was more than 75.1 µM each time.

On to `Clc1ccc(/C=N/Nc2nc(-c3ccccc3)c[se]2)cc1`, for which the IC50 in assay [1] came out at 54.2 µM; in assay [2] it was 42.5 µM.

Turning to `CCOC(=O)c1[se]c(N/N=C/c2ccc(Cl)cc2)nc1C`, the figures for the half-inhibitory concentration (IC50) in assay [1] and in assay [2] were 47.7 µM and 52.8 µM, respectively.

Regarding `COc1ccc(/C=N/Nc2nc(C)c[se]2)cc1`, the IC50 is more than 85 µM in assay [1] and 83.2 µM in assay [2].

`COc1ccc(/C=N/Nc2nc(-c3ccccc3)c[se]2)cc1`: the IC50 worked out at 50.9 µM in assay [1] and 50.5 µM in assay [2].

For the compound `ClCc1c[se]c(N/N=C/c2csc(-c3ccccc3)n2)n1`, the IC50 in assay [1] came to 16.4 µM; in assay [2], 18.8 µM.

For `CC(=O)c1[se]c(N/N=C/c2csc(-c3ccccc3)n2)nc1C`, the IC50 turned out to be 49.9 µM in assay [1] and 61.3 µM in assay [2].

For the compound `CC(=O)N(/N=C/c1ccc(Cl)cc1)c1nc(C)c[se]1`, the IC50 in assay [1] turned out to be 60.6 µM; in assay [2] it was 59.2 µM.

On to `NC(=[Se])NNC(=O)c1ccccc1` [BENZOYL-SELENOSEMICARBAZIDE], for which the IC50 in assay [1] came to 35.1 µM; in assay [2], 34.8 µM.

Take `NC(=[Se])N/N=C/c1ccccc1` [BENZYLIDEN-SELENOSEMICARBAZIDE]: the IC50 in assay [1] was determined as 40.8 µM; in assay [2] it was 39.1 µM.

Regarding `COc1cccc2c1C(=O)c1c(O)c3c(c(O)c1C2=O)C[C@@](O)(C(=O)CO)C[C@@H]3O[C@H]1C[C@H](N)[C@H](O)[C@H](C)O1` [DOXORUBICIN], the IC50 in assay [1] is 3.27 µM; in assay [2], 4.89 µM.
